Several values for one entry are separate records, joined by “and”; a condition that tells them apart may be missing. Equal values may be shown once. One block for each compound: values may come before it.
What was measured:
[1] = molecular target: P. aeruginosa LptB with a C-terminal 6 x His-tag (P. aeruginosa); assay: non-reducing SDS-PAGE; SDS-PAGE gel of the purified complex, run under non-reducing conditions
[2] = molecular target: P. aeruginosa LptB with a C-terminal 6 x His-tag (P. aeruginosa); assay: native MS; complex co-expressed and purified by the His tag on LptB (IMAC, SEC), exchanged into 200 mM ammonium acetate + 0.04% (w/v) [G1]-OGD; negative polarity
[3] = molecular target: P. aeruginosa LptB with a C-terminal 6 x His-tag (P. aeruginosa); assay: cryo-EM structure; LptB2FG/LptB2FGC co-expressed, co-purified and delipidated, reconstituted in MSP1D1 nanodiscs with E. coli total extract lipid; 20 mM Tris-HCl pH 7.5, 100 mM NaCl; substrate-free; three LptB2FG and two LptB2FGC conformations from one sample
[4] = test system: P. aeruginosa LptB2FG; assay: Native MS lipid binding to LptB2FG; design: species or system Pseudomonas aeruginosa; details: for 1x lipid_Ratio / 2x lipid_Ratio / 3x lipid_Ratio / 4x lipid_Ratio / Apo_Ratio: 3 μM protein
Protocol: (§1) Purified LptB2FG(C) was buffer exchanged into MS Buffer (200 mM ammonium acetate + 0.04% (w/v) [G1]-OGD) using a centrifugal buffer exchange device (Micro Bio-Spin 6, Bio-Rad) as previously described. The freshly buffer-exchanged protein was kept on ice, with protein concentration measured as before. The protein samples were diluted as desired in 200 mM ammonium acetate buffer with detergent as necessary and loaded into a gold-coated capillary Clark borosilicate capillary (Harvard Apparatus) prepared in the laboratory. The experiments were performed using a Q Exactive UHMR Hybrid Quadrupole-Orbitrap mass spectrometer (Thermo Fisher Scientific). Typically, 2 μl of buffer-exchanged protein solution was electrosprayed in negative polarity from in-house prepared gold-coated borosilicate capillaries. The instrument parameters used for data collection were: capillary voltage 1.1 kV, S-lens RF 100%, quadrupole selection from 1000 to 20,000 m/z range, HCD collision energy 200–300 V, source fragmentation 0 V, in-source trapping 200–300 V in negative mode. The ion transfer optics was set as follows: injection flatapole − 5 V, inter-flatapole lens − 4 V, bent flatapole − 2 V, transfer multipole 0 V. The resolution of the instrument was 8750 at m/z = 200 (transient time of 64 ms), argon pressure in the HCD cell was maintained at approximately at 8 × 10^–10 mbar and source temperature was kept at 200 °C. The noise level was set at 3 rather than the default value of 4.64. Calibration of the instruments was performed using 10 mg/ml solution of caesium iodide in water. Where required, baseline subtraction was performed to achieve a better-quality mass spectrum. Data were analysed using the Xcalibur 3.0 (Thermo Scientific), NaViA[64], and UniDec (www.unidec.chem.ox.ac.uk)[65] software packages.
(§2) Lipid and nucleotide binding experiments were performed by diluting them in 200 mM ammonium acetate supplemented with 0.04% [G1]-OGD. Native MS experiments were performed at a total LptB2FG(C) protein concentration of 3 μM.
(§3) Peak intensities were extracted using UniDec, and the ratios of the intensity of the ligand bound peak versus the total intensity of all observed species were calculated. The apparent dissociation constant (KD) values for individual lipid-binding events to LptB2FG and LptB2FGC were calculated through a sequential lipid-binding model using a previously described Python script. When necessary, a Welch’s T-test was used to evaluate statistically significant differences and data were plotted using GraphPad Prism 8.0. Error bars in the plots indicate standard deviation, and all experiments were performed in triplicate (n = 3).

[5] = test system: P. aeruginosa LptB2FGC; assay: Native MS lipid binding to LptB2FGC; design: species or system Pseudomonas aeruginosa; details: for 1x lipid_Ratio / 2x lipid_Ratio / 3x lipid_Ratio / 4x lipid_Ratio / Apo_Ratio: 3 μM protein
Protocol: as §1, §2, §3

[6] = test system: P. aeruginosa LptB2FGC; assay: Native MS: CDL added to LptB2FG(C):Re-LPS complex (competition); assay type: binding, Pseudomonas aeruginosa; details: Re-LPS 1 uM + CDL 2.5 uM
Protocol: In particular, we chose 14:0 CDL to be consistent with the 14 carbon lipid tails of Re-LPS, and incubated this with the LptB2FG/LptB2FGC complex, we could observe ~ 50% of LptB2FGC bound to CDL at 2.5 μM concentration (Fig. 5b). Apparent KD calculation indicated a similar trend when comparing LptB2FG and LptB2FGC interaction with CDL to that of LPS (Supplementary Fig. S18). […] We set out to test whether CDL influences LPS binding to LptB2FGC. To this end, we added increasing concentrations of CDL (1.0 to 5 μM) to a solution containing LptB2FG(C):Re-LPS complex (Supplementary Fig. S19).
Purified LptB2FG(C) was buffer exchanged into MS Buffer (200 mM ammonium acetate + 0.04% (w/v) [G1]-OGD) using a centrifugal buffer exchange device (Micro Bio-Spin 6, Bio-Rad) as previously described. The freshly buffer-exchanged protein was kept on ice, with protein concentration measured as before. […] Data were analysed using the Xcalibur 3.0 (Thermo Scientific), NaViA[64], and UniDec (www.unidec.chem.ox.ac.uk)[65] software packages. […]
Peak intensities were extracted using UniDec, and the ratios of the intensity of the ligand bound peak versus the total intensity of all observed species were calculated. The apparent dissociation constant (KD) values for individual lipid-binding events to LptB2FG and LptB2FGC were calculated through a sequential lipid-binding model using a previously described Python script. […]

[7] = first lipid-binding event, sequential lipid-binding model, native MS, read-out: apparent dissociation constant KD(1)

stoichiometry N [1]: 2 | stoichiometry N [2]: 2 | stoichiometry N [3]: 2
Compound: P. aeruginosa LptB with a C-terminal 6 x His-tag (natural protein)

Compound: CCCCCCCCCCC[C@@H](O)CC(=O)N[C@H]1[C@H](OC[C@H]2O[C@H](OP(=O)(O)O)[C@H](NC(=O)C[C@H](O)CCCCCCCCCCC)[C@@H](OC(=O)C[C@H](O)CCCCCCCCCCC)[C@@H]2O)O[C@H](CO)[C@@H](OP(=O)(O)O)[C@@H]1OC(=O)C[C@H](O)CCCCCCCCCCC [lipid IVA]
apo fraction of LptB2FG ([4]; pre-delipidation, ClearColi-expressed complex, lipid IVA sole LPS-related species): ~ 60% | lipid IVA occupancy of LptB2FGC ([5]; pre-delipidation, ClearColi-expressed complex, with 2× adducts): ~ 80%

Compound: CCCCCCCCCCCCCC(=O)OC[C@H](COP(=O)(O)OCC(O)COP(=O)(O)OC[C@@H](COC(=O)CCCCCCCCCCCCC)OC(=O)CCCCCCCCCCCCC)OC(=O)CCCCCCCCCCCCC (stereo partly shown) [CDL, 1’,3’-bis[1,2-dimyristoyl-sn-glycero-3-phospho]-glycerol]
1x lipid_Ratio ([4]; 0.25 μM lipid): 0.1443 and 0.1705 and 0.1602 | 2x lipid_Ratio ([4]; 0.25 μM lipid): 0 | 3x lipid_Ratio ([4]; 0.25 μM lipid): 0 | 4x lipid_Ratio ([4]; 0.25 μM lipid): 0 | Apo_Ratio ([4]; 0.25 μM lipid): 0.8557 and 0.8295 and 0.8398 | 1x lipid_Ratio ([4]; 0.5 μM lipid): 0.199 and 0.1911 and 0.2318 | 2x lipid_Ratio ([4]; 0.5 μM lipid): 0 | 3x lipid_Ratio ([4]; 0.5 μM lipid): 0 | 4x lipid_Ratio ([4]; 0.5 μM lipid): 0 | Apo_Ratio ([4]; 0.5 μM lipid): 0.801 and 0.8089 and 0.7682 | 1x lipid_Ratio ([4]; 1 μM lipid): 0.2261 and 0.2185 and 0.1754 | 3x lipid_Ratio ([4]; 1 μM lipid): 0 | 4x lipid_Ratio ([4]; 1 μM lipid): 0 | Apo_Ratio ([4]; 1 μM lipid): 0.7468 and 0.7118 and 0.7769 | 1x lipid_Ratio ([4]; 1.25 μM lipid): 0.2786 and 0.2616 and 0.2584 | 2x lipid_Ratio ([4]; 1.25 μM lipid): 0.04833 and 0.04258 and 0.08199 | 3x lipid_Ratio ([4]; 1.25 μM lipid): 0 | 4x lipid_Ratio ([4]; 1.25 μM lipid): 0 | Apo_Ratio ([4]; 1.25 μM lipid): 0.6731 and 0.6958 and 0.6596 | 1x lipid_Ratio ([4]; 2.5 μM lipid): 0.3458 and 0.3529 and 0.3561 | 2x lipid_Ratio ([4]; 2.5 μM lipid): 0.07878 and 0.07812 and 0.08017 | 3x lipid_Ratio ([4]; 2.5 μM lipid): 0 | 4x lipid_Ratio ([4]; 2.5 μM lipid): 0 | Apo_Ratio ([4]; 2.5 μM lipid): 0.5754 and 0.569 and 0.5638 | 1x lipid_Ratio ([4]; 5 μM lipid): 0.4041 and 0.3985 and 0.4061 | 2x lipid_Ratio ([4]; 5 μM lipid): 0.2783 and 0.2976 and 0.263 | 3x lipid_Ratio ([4]; 5 μM lipid): 0.07217 and 0.104 and 0.096 | 4x lipid_Ratio ([4]; 5 μM lipid): 0 | Apo_Ratio ([4]; 5 μM lipid): 0.2455 and 0.1999 and 0.2349 | Kd [4, 7]: 4.8 ± 0.14 µM | 1x lipid_Ratio ([5]; 0.25 μM lipid): 0.1955 and 0.2067 and 0.2427 | 2x lipid_Ratio ([5]; 0.25 μM lipid): 0 | 3x lipid_Ratio ([5]; 0.25 μM lipid): 0 | 4x lipid_Ratio ([5]; 0.25 μM lipid): 0 | Apo_Ratio ([5]; 0.25 μM lipid): 0.8045 and 0.7933 and 0.7573 | 1x lipid_Ratio ([5]; 0.5 μM lipid): 0.236 and 0.2635 and 0.2763 | 2x lipid_Ratio ([5]; 0.5 μM lipid): 0 | 3x lipid_Ratio ([5]; 0.5 μM lipid): 0 | 4x lipid_Ratio ([5]; 0.5 μM lipid): 0 | Apo_Ratio ([5]; 0.5 μM lipid): 0.764 and 0.7365 and 0.7237 | 1x lipid_Ratio ([5]; 1 μM lipid): 0.2764 and 0.2872 and 0.3074 | 2x lipid_Ratio ([5]; 1 μM lipid): 0.0846 and 0.07455 and 0.1186 | 3x lipid_Ratio ([5]; 1 μM lipid): 0 | 4x lipid_Ratio ([5]; 1 μM lipid): 0 | Apo_Ratio ([5]; 1 μM lipid): 0.639 and 0.6382 and 0.574 | 1x lipid_Ratio ([5]; 1.25 μM lipid): 0.3498 and 0.3261 and 0.3766 | 3x lipid_Ratio ([5]; 1.25 μM lipid): 0 | 4x lipid_Ratio ([5]; 1.25 μM lipid): 0 | Apo_Ratio ([5]; 1.25 μM lipid): 0.545 and 0.5422 and 0.5586 | 1x lipid_Ratio ([5]; 2.5 μM lipid): 0.3774 and 0.3613 and 0.3792 | 2x lipid_Ratio ([5]; 2.5 μM lipid): 0.1928 and 0.1837 and 0.1898 | 3x lipid_Ratio ([5]; 2.5 μM lipid): 0.07276 and 0.06329 and 0.08767 | 4x lipid_Ratio ([5]; 2.5 μM lipid): 0 | Apo_Ratio ([5]; 2.5 μM lipid): 0.3571 and 0.3916 and 0.3434 | 1x lipid_Ratio ([5]; 5 μM lipid): 0.2708 and 0.2286 and 0.261 | 2x lipid_Ratio ([5]; 5 μM lipid): 0.3089 and 0.3049 and 0.3123 | 3x lipid_Ratio ([5]; 5 μM lipid): 0.1993 and 0.2344 and 0.2124 | 4x lipid_Ratio ([5]; 5 μM lipid): 0.08447 and 0.1259 and 0.09283 | Apo_Ratio ([5]; 5 μM lipid): 0.1365 and 0.1062 and 0.1214 | Kd [5, 7]: 3.07 ± 0.09 µM | 1x CDL [6]: 0.1327 and 0.2003 and 0.1609 | 2x CDL [6]: 0
